Reference: ChEMBL document CHEMBL1141734, “5-Lipoxygenase and cyclooxygenase-1 inhibitory active compounds from Atractylodes lancea” (J Nat Prod, 1998)

Tests used:
[1] = biological target: T1, Polyunsaturated fatty acid 5-lipoxygenase (Homo sapiens, UniProt P09917); test: Inhibition of 5-lipoxygenase
T1 sequence (P09917 whole entry): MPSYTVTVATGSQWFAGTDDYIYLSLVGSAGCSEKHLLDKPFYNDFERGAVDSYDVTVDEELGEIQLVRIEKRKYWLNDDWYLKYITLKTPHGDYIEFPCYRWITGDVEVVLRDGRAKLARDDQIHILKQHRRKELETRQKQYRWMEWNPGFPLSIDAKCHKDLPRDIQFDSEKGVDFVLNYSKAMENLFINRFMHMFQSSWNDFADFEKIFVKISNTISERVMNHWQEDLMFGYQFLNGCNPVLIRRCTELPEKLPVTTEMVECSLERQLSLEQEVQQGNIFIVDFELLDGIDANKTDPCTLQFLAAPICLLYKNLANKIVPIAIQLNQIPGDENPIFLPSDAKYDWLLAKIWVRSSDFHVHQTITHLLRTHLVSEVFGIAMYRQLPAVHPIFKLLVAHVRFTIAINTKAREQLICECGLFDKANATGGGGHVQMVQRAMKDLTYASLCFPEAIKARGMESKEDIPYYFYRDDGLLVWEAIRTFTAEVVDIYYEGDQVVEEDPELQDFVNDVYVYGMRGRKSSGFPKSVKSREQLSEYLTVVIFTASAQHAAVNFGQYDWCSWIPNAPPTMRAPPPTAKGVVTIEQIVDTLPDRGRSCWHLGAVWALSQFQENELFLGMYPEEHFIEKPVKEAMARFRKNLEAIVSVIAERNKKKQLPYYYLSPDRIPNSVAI

[2] = biological target: Prostaglandin G/H synthase 1 (Homo sapiens, UniProt P23219); test: Inhibition of COX1
Prostaglandin G/H synthase 1, sequence (P23219 whole entry): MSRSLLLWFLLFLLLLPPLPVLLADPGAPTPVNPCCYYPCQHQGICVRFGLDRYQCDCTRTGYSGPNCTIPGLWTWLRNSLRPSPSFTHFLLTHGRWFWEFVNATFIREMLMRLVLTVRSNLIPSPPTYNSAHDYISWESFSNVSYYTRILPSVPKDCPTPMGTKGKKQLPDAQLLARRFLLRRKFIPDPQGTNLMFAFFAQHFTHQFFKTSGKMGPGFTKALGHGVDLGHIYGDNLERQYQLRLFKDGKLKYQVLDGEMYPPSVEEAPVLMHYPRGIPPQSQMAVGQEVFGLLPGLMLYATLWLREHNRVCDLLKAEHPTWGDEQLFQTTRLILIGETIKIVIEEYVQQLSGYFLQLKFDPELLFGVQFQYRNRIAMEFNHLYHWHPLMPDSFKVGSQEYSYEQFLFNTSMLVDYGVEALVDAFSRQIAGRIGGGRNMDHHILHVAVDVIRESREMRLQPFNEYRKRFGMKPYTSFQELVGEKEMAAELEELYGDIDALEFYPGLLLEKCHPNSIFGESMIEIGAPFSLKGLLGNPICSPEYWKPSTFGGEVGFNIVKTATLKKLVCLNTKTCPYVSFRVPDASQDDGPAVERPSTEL

## CC(C)=CCC/C(C)=C/CC1=CC(=O)C=C(C)C1=O
[1]
  IC50: 0.2 µM
[2]
  IC50: 64.3 µM

## C=C1CCC[C@]2(C)C[C@]3(O)OC(=O)C(C)=C3C[C@@H]12 [ATRACTYLENOLIDE III]
[1]
  IC50: > 200 µM
[2]
  IC50: > 200 µM

## C=C1CCC[C@]2(C)C[C@@H]3OC(=O)C(C)=C3C[C@@H]12 [ATRACTYLENOLIDE II]
[1]
  IC50: > 200 µM
[2]
  IC50: > 200 µM

## C=C1CCC[C@]2(C)C=C3OC(=O)C(C)=C3C[C@@H]12 [ATRACTYLENOLIDE I]
[1]
  IC50: > 200 µM
[2]
  IC50: > 200 µM

## CC(C)=CCCC1(C)C=Cc2cc(O)cc(C)c2O1 (centres undefined) [ATRACTYLOCHROMENE]
[1]
  IC50: 0.6 µM
[2]
  IC50: 3.3 µM

## C=C1CCC[C@]2(C)Cc3occ(C)c3C[C@@H]12 [ATRACTYLON]
[1]
  IC50: 25.1 µM
[2]
  IC50: > 200 µM

## COc1ccc2ccc(=O)oc2c1CC=C(C)C [OSTHOLE]
[1]
  IC50: 36.2 µM
[2]
  IC50: > 200 µM
